Reference: BindingDB's records for PubMed 7996470 (University of Michigan, 1994)

Key:
[1] = target: T1, Alpha-2A adrenergic receptor (Homo sapiens, UniProt P08913)
T1 sequence (P08913 whole entry): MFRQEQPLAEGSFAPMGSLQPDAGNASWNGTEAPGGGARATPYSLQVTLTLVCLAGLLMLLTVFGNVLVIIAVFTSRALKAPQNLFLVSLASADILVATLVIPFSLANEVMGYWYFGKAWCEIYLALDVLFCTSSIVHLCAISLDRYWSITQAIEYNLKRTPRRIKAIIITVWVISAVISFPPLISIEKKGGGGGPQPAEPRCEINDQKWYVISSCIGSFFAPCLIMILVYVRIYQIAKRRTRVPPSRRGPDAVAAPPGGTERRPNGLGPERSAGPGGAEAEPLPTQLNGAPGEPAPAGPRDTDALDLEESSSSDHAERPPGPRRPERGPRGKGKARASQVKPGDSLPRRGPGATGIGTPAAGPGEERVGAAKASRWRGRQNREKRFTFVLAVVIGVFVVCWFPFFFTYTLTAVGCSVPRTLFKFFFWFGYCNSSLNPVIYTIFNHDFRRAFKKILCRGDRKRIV

[2] = target: T2, Alpha-2C adrenergic receptor (Homo sapiens, UniProt P18825)
T2 sequence (P18825 whole entry): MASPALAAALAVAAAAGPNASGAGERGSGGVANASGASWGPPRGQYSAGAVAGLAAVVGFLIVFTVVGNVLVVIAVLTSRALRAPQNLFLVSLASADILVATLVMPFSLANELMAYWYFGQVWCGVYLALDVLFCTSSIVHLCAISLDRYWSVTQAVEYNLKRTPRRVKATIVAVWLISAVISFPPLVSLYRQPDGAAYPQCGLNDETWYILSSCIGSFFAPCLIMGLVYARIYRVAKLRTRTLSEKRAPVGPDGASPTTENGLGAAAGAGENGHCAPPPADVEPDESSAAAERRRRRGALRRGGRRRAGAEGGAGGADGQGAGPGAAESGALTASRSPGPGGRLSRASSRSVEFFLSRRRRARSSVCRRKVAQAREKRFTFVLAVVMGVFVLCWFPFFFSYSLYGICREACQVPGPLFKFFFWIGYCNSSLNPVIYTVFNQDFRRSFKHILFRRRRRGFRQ

Ki [1]	Ki [2]	SMILES
0.62 nM	1.78 nM	COC1(C2=NCCN2)COc2ccccc2O1 (centres undefined) [RX821002]
	31.8 nM	COc1ccccc1N1CCN(CCC2C(=O)c3ccccc3C(C)(C)C2=O)CC1 (centres undefined) [NSC_122211]
14.6 nM	3.18 nM	COc1cccc(OC)c1OCCNCC1Oc2ccccc2OC1c1ccccc1 (centres undefined) [NSC_185453]
5.68 nM		CC1c2ccccc2CN1CC1=NCCN1 (centres undefined) [NSC_121850]

SMILES	Ki [1]	Ki [2]
O=C1NCN(c2ccccc2)C12CCN(CC1COc3ccccc3O1)CC2 (centres undefined) [8-(2,3-Dihydro-benzo[1,4]dioxin-2-ylmethyl)-1-phenyl-1,3,8-triaza-spiro[4.5]decan-4-one]	54.3 nM	1.04 nM
COc1cc(N)c(Cl)cc1C(=O)NC1CC2CCC(C1)N2C (centres undefined) [4-amino-5-chloro-2-methoxy-N-(8-methyl-8-azabicyclo[3.2.1]octan-3-yl)benzamide]		150 nM
